From PubChem BioAssay AID1963838 (Molecular Pharmacology Branch, DTP, NCI, 2024)

System: 855422-203-R-J1-PDC complex spheroid viability
Assay: Anticancer human tumor 855422-203-R-J1-PDC patient-derived bladder carcinoma cell line growth inhibition [POLQ]
Conditions: for IC50: curve of first compound; for viability, T/C: stronger effect = lower value
Method: Multicellular complex tumor spheroid response to Polymerase (POL) inhibitors (novobiocin, ART-558, RP6685) in combination with a variety of drugs and investigational agents in selected tumor cell lines
The POL inhibitors (novobiocin, ART-558, and RP6685) were evaluated both individually and in combination with standard of care and investigational anticancer small molecules within a complex spheroid model of solid tumors. . Complex spheroids include a stromal component modeled by human endothelial cells (HUVEC) and fibroblasts modeled by human mesenchymal stem cells (MSCs). The concentration ranges selected for each drug and investigational agent were based upon clinically achievable concentrations if the clinical Cmax of the agent was known.
Compounds. The drugs and investigational agents: novobiocin (NSC847541), ART-558 (NSC835418), RP-6685 (NSC848927), peposertib (NSC802822), ceralasertib (NSC780249), elimusertib (NSC800525), camonsertib (NSC841442), AZD-1390 (NSC803789), olaparib (NSC753686), talazoparib (NSC767125), rucaparib (NSC756644), sotorasib (NSC818433), MRTX-1133 (NSC836407), SN-38 (NSC673596), topotecan (NSC609699), epotoside (NSC141540), doxorubicin (NSC123127), gemcitabine (NSC613327), 5-fluorouracil (NSC19893), paclitaxel (NSC125973), vemurafenib (NSC761431), MSA-2 (NSC828583), SN-011 (NSC837082), adavosertib (NSC754352), prexasertib (NSC758257), carboplatin (NSC241240) and oxaliplatin (NSC266046), were obtained from the National Cancer Institute (NCI) Developmental Therapeutics Program Chemical Repository (21). The FDA-approved anticancer drug set is available from the Developmental Therapeutics Program at https://dtp.cancer.gov/organization/dscb/obtaining/. […] The stock solutions were prepared in dimethyl sulfoxide (DMSO, Sigma-Aldrich, St. Louis, MO, cat. D2650), except for the platinum compounds which were prepared in saline (Quality Biological, Gaithersburg, MD, cat. 114-055-101), at 800-fold the tested concentration and stored at -70 degrees C prior to their use. All drugs and investigational agents were tested over a range starting from a high concentration at or near the clinical Cmax and decreasing in half-log increments. If the clinical Cmax for an agent had not been determined, the highest concentration tested was 10 microM, except for SN-38, which was tested at a high concentration of 1 microM.
Cell Culture. All cells were maintained in an incubator at 37 degrees C and 5% CO2 with 95% humidity. The PDC lines were cultured according to standard operating procedures established by the NCI PDMR (https://pdmr.cancer.gov). Table 3 of the manuscript, lists the cell lines along with the number of the three cell types plated to form the mct-spheroids and media for tumor cell growth. After thawing, all PDC lines, except 997537-175-T-J1-PDC and 415267-285-R-J2-PDC, were cultured in Matrigel-coated flasks prepared with a working solution of 1X Ham's F-12 nutrient mix, without supplementation (Thermo Fisher Scientific, cat. 11765054), 100 U/mL penicillin-streptomycin (Thermo Fisher Scientific, cat. 15140122), and 2.5% Matrigel (Corning Inc., Corning, NY, cat. 354248) for the first three passages. The two PDC lines 997537-175-T-J1-PDC and 415267-285-R-J2-PDC were cultured on uncoated flasks. The 857933-349-R-J2-PDC line was cultured in 6C/Colon 1B media containing advanced DMEM/F-12 (Thermo Fisher Scientific, cat. 12634028), 10 mM HEPES (Thermo Fisher Scientific, cat. 15630080), 1X GlutaMAX supplement (Thermo Fisher Scientific, cat. 35050061), 0.1 mg/mL primocin (InvivoGen, San Diego, CA, cat. ant-pm-2), 10% defined fetal bovine serum, heat inactivated (HyClone Laboratories Inc., Logan, UT, cat. SH30070.03HI), 50% L-WRN conditioned media (ATCC, cat. CRL-3276), 1.25 mM N-Acetyl-L-cysteine (Sigma-Aldrich, cat. A9165), 10 mM nicotinamide (Sigma-Aldrich, cat. N0636), 1X B-27 supplement (Thermo Fisher Scientific, cat. 17504044), 1X N-2 supplement (Thermo Fisher Scientific, cat. […]

[1] = second compound 0.0316 µM, first compound 0.0316 µM
[2] = second compound 0.0316 µM, first compound 0.1 µM
[3] = second compound 0.0316 µM, first compound 0.316 µM
[4] = second compound 0.0316 µM, first compound 1 µM
[5] = second compound 0.1 µM, first compound 0.0316 µM
[6] = second compound 0.1 µM, first compound 0.1 µM
[7] = second compound 0.1 µM, first compound 0.316 µM
[8] = second compound 0.1 µM, first compound 1 µM
[9] = second compound 0.316 µM, first compound 0.0316 µM
[10] = second compound 0.316 µM, first compound 0.1 µM
[11] = second compound 0.316 µM, first compound 0.316 µM
[12] = second compound 0.316 µM, first compound 1 µM
[13] = second compound 1 µM, first compound 0.0316 µM
[14] = second compound 1 µM, first compound 0.1 µM
[15] = second compound 1 µM, first compound 0.316 µM
[16] = second compound 1 µM, first compound 1 µM
[17] = second compound 3.16 µM, first compound 0.0316 µM
[18] = second compound 3.16 µM, first compound 0.1 µM
[19] = second compound 3.16 µM, first compound 0.316 µM
[20] = second compound 3.16 µM, first compound 1 µM
[21] = second compound 10 µM, first compound 0.0316 µM
[22] = second compound 10 µM, first compound 0.1 µM
[23] = second compound 10 µM, first compound 0.316 µM
[24] = second compound 10 µM, first compound 1 µM
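Also: spheroids exposed to compounds for seven days before readout.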

COc1cccc(OCCCN)c1-c1cc(Nc2cnc(C#N)cn2)n[nH]1 + Cc1cccc(N(C)C(=O)C2C(O)CCN2c2nc(C)cc(C(F)(F)F)c2C#N)c1
IC50 (second compound 0.0316 µM): 26.3 nM | IC50 (second compound 0.1 µM): 23.9 nM | IC50 (second compound 0.316 µM): 25.6 nM | IC50 (second compound 1 µM): 24.7 nM | IC50 (second compound 3.16 µM): 23.7 nM | IC50 (second compound 10 µM): 21.7 nM | viability, T/C (second compound 0.0316 µM, first compound 0.00316 µM): 122% | viability, T/C (second compound 0.0316 µM, first compound 0.01 µM): 162% | viability, T/C [1]: 32.3% | viability, T/C [2]: 11.9% | viability, T/C [3]: 8.13% | viability, T/C [4]: 5.03% | viability, T/C (second compound 0.1 µM, first compound 0.00316 µM): 98.7% | viability, T/C (second compound 0.1 µM, first compound 0.01 µM): 149% | viability, T/C [5]: 26.4% | viability, T/C [6]: 8.17% | viability, T/C [7]: 7.52% | viability, T/C [8]: 6.18% | viability, T/C (second compound 0.316 µM, first compound 0.00316 µM): 99.1% | viability, T/C (second compound 0.316 µM, first compound 0.01 µM): 144% | viability, T/C [9]: 34.1% | viability, T/C [10]: 13.6% | viability, T/C [11]: 7.31% | viability, T/C [12]: 6.21% | viability, T/C (second compound 1 µM, first compound 0.00316 µM): 97.4% | viability, T/C (second compound 1 µM, first compound 0.01 µM): 133% | viability, T/C [13]: 32.1% | viability, T/C [14]: 9.07% | viability, T/C [15]: 8.72% | viability, T/C [16]: 8.98% | viability, T/C (second compound 3.16 µM, first compound 0.00316 µM): 87.8% | viability, T/C (second compound 3.16 µM, first compound 0.01 µM): 183% | viability, T/C [17]: 21.4% | viability, T/C [18]: 14.6% | viability, T/C [19]: 7.43% | viability, T/C [20]: 5.57% | viability, T/C (second compound 10 µM, first compound 0.00316 µM): 137% | viability, T/C (second compound 10 µM, first compound 0.01 µM): 94.1% | viability, T/C [21]: 28.3% | viability, T/C [22]: 11.2% | viability, T/C [23]: 9.5% | viability, T/C [24]: 7.47%

Nc1ccn(C2OC(CO)C(O)C2(F)F)c(=O)n1 (centres undefined) + Cc1cccc(N(C)C(=O)C2C(O)CCN2c2nc(C)cc(C(F)(F)F)c2C#N)c1
IC50 (second compound 0.0316 µM): 78.9 nM | IC50 (second compound 0.1 µM): 101 nM | IC50 (second compound 0.316 µM): 76.9 nM | IC50 (second compound 1 µM): 85.7 nM | IC50 (second compound 3.16 µM): 77.1 nM | IC50 (second compound 10 µM): 69.8 nM | viability, T/C [1]: 84.7% | viability, T/C [2]: 41% | viability, T/C [3]: 12.6% | viability, T/C [4]: 12.4% | viability, T/C (second compound 0.0316 µM, first compound 3.16 µM): 8.52% | viability, T/C (second compound 0.0316 µM, first compound 10 µM): 7.11% | viability, T/C [5]: 86.4% | viability, T/C [6]: 50.5% | viability, T/C [7]: 13.6% | viability, T/C [8]: 9.98% | viability, T/C (second compound 0.1 µM, first compound 3.16 µM): 8.34% | viability, T/C (second compound 0.1 µM, first compound 10 µM): 6.1% | viability, T/C [9]: 81.7% | viability, T/C [10]: 40.7% | viability, T/C [11]: 11.9% | viability, T/C [12]: 10.9% | viability, T/C (second compound 0.316 µM, first compound 3.16 µM): 8.07% | viability, T/C (second compound 0.316 µM, first compound 10 µM): 5.67% | viability, T/C [13]: 83.7% | viability, T/C [14]: 44.8% | viability, T/C [15]: 12% | viability, T/C [16]: 11.7% | viability, T/C (second compound 1 µM, first compound 3.16 µM): 8.68% | viability, T/C (second compound 1 µM, first compound 10 µM): 6.87% | viability, T/C [17]: 86.5% | viability, T/C [18]: 39.4% | viability, T/C [19]: 14.8% | viability, T/C [20]: 10.2% | viability, T/C (second compound 3.16 µM, first compound 3.16 µM): 10.4% | viability, T/C (second compound 3.16 µM, first compound 10 µM): 6.57% | viability, T/C [21]: 84.5% | viability, T/C [22]: 34.4% | viability, T/C [23]: 13.3% | viability, T/C [24]: 12.7% | viability, T/C (second compound 10 µM, first compound 3.16 µM): 8.82% | viability, T/C (second compound 10 µM, first compound 10 µM): 8.17%
